Results on 12 compounds are retold here after ChEMBL document CHEMBL1142263, “Structural analogs of tylophora alkaloids may not be functional analogs” (Bioorg Med Chem Lett, 2008).

The nature of assay [1]: Inhibition of AP1-mediated transcription in human HepG cells. The format is cell-based.
In a further assay the test system is PANC-1. Description: Growth inhibition of human PANC1 cells. Type of assay: functional.
The nature of assay [2]: Inhibition of CRE-mediated transcription in human HepG cells. The format is cell-based.
Assay [3] can be described thus: Growth inhibition of human HepG cells. The format is functional.
Assay [4] in a line: Inhibition of NF-kappaB-mediated transcription in human HepG cells. Type of assay: cell-based.
A further assay deals with CCRF-CEM. The assay can be described thus: Growth inhibition of human CEM cells. Type of assay: functional.
Assay [5] is described as follows: Inhibition of GRE-mediated transcription in human HepG cells. Type of assay: cell-based.
The subject of assay [6] is HepG. The assay can be described thus: Inhibition of RNA synthesis in human HepG cells. Type of assay: functional, cell-based.
Assay [7] concerns HepG. Description: Inhibition of DNA synthesis in human HepG cells. Type of assay: functional, cell-based.
Assay [8] relates to HepG. The assay can be described thus: Inhibition of protein synthesis in human HepG cells. Type of assay: functional, cell-based.
Assay [9] can be described thus: Ratio of IC50 for AP1-mediated transcription in human HepG cells to GI50 for human HepG2 cells. Type of assay: functional.
Assay [10] can be described thus: Ratio of IC50 for NF-kappaB-mediated transcription in human HepG cells to GI50 for human HepG2 cells. Type of assay: functional.
Assay [11] in a line: Ratio of IC50 for GRE-mediated transcription in human HepG cells to GI50 for human HepG2 cells. The format is functional.
A short description of assay [12]: Ratio of IC50 for CRE-mediated transcription in human HepG cells to GI50 for human HepG2 cells. Type of assay: functional.

pIC50: −log10 of the molar value. Active and inactive are the calls of the source. The calls are words filed in the database; no cut-off is given here.

Consider `COc1ccc2cc(C)c3cc(OC)c(OC)cc3c2c1`, for which the pIC50 (commonly −log10 of the IC50, conventionally taken in molar units) in assay [1] was less than 4.82; in assay [2], less than 4.82; in assay [4], less than 5.00; in [5], less than 4.82. Further, the figures for the concentration for 50% growth inhibition (GI50) (with PANC-1; in assay [3]; with CCRF-CEM) were greater than 10000 nM, greater than 10000 nM and greater than 2000 nM, respectively.

On to `COc1ccc2c(CN3CCCC[C@H]3C(=O)O)cc3cc4c(cc3c2c1)OCO4`, for which the negative-log IC50 (pIC50) is 5.21 in assay [1], 4.92 in assay [2], 5.15 in [4] and 5.14 in assay [5]. Besides, the 50% growth inhibitory concentration (GI50) (usually the concentration at which growth is held to half of that of the control) in the assay on PANC-1 was 2300 nM; in assay [3] it was 3000 nM; in the assay with CCRF-CEM, 1700 nM.

As to `COc1ccc2c(CN3CCC[C@H]3CO)cc3cc4c(cc3c2c1)OCO4`, the pIC50 in [1] is less than 4.52; in assay [2], 4.62; in [4] it was 4.68; in assay [5], 4.72. In addition, the results for the GI50 (in the assay with PANC-1; in [3]; with CCRF-CEM) were 6200 nM, 5400 nM and 2700 nM, respectively. For the same compound, the outcome with HepG [6] was Active. Besides, the Activity result in the assay on HepG [7] is “Dose-dependent effect”. The result in the assay on HepG [8] was inactive.

Turning to `COc1ccc2c(CNCCCCCO)cc3cc4c(cc3c2c1)OCO4`, the pIC50 in [1] was 5.06; in assay [2], 5.07; in assay [4], 5.10; in assay [5], 5.04. Further, the figures for the GI50 (with PANC-1; in assay [3]; in the assay with CCRF-CEM) were 2200 nM, 2300 nM and 2000 nM, respectively.

For `COc1ccc2c3c(c4cc5c(cc4c2c1)OCO5)C[C@H]1CCCN1C3`, the negative-log IC50 (pIC50) in [1] is 5.47; in [2], 5.59; in assay [4], 5.91; in assay [5], 5.61. Further, the GI50 in the assay on PANC-1 was found to be 156 nM; in assay [3] it was 371 nM; in the assay with CCRF-CEM, 323 nM. In addition, the Activity result in the assay with HepG [7] is “Dose-dependent effect”. Besides, in the assay on HepG [8], the result was Active.

Consider `COc1ccc2c(CN3CCC[C@H]3C(=O)O)cc3cc4c(cc3c2c1)OCO4`, for which the negative logarithm of the IC50 (pIC50) is 4.57 in [1], 4.60 in [2], 4.63 in [4] and less than 4.52 in [5]. For the same compound, the figures for the concentration for 50% growth inhibition (GI50) (in the assay on PANC-1; in [3]; with CCRF-CEM) were 7400 nM, 8600 nM and 6200 nM, respectively.

In the case of `COc1ccc2cc(C[C@H]3CCCCN3)c3cc(OC)c(OC)cc3c2c1`, the negative-log IC50 (pIC50) in [1] is 5.01; in assay [2], 4.92; in [4], 5.66; in assay [5] it was 5.35. In addition, the Activity in assay [9] is 5.7; in assay [10] it was 1.3; in assay [11], 2.6; in assay [12], 7; in the assay with HepG [6] it was “Dose-dependent effect”; in the assay on HepG [7], “Dose-dependent effect”. Also, the Activity entry in the assay with HepG [8] is “Dose-dependent effect”. Also, the GI50 in the assay with PANC-1 amounted to 904 nM; in assay [3], 1720 nM; in the assay on CCRF-CEM, 567 nM.

For `COc1ccc2c(CN3CCCC[C@H]3CO)cc3cc4c(cc3c2c1)OCO4`, the pIC50 in assay [1] was 5.00; in [2], 4.73; in assay [4], 4.99; in [5] it was 4.68. The figures for the GI50 (in the assay on PANC-1; in assay [3]; in the assay with CCRF-CEM) were 2300 nM, 3100 nM and 1600 nM, respectively.

For `COc1ccc2c3c(c4cc(OC)c(OC)cc4c2c1)CC1CCCCN1C3` (racemic), the pIC50 is 7.73 in [1], 7.60 in [2], 8.85 in [4] and 8.00 in [5]. For the same compound, the 50% growth inhibitory concentration (GI50) turned out to be 0.5 nM in the assay with PANC-1, 1.5 nM in assay [3] and 2 nM in the assay with CCRF-CEM.

Consider `COc1ccc2c3c(c4cc(OC)c(OC)cc4c2c1)C[C@H]1CCCN1C3` [(-)-ANTOFINE], for which the pIC50 is 6.87 in assay [1], 6.78 in assay [2], 8.14 in assay [4] and 7.62 in assay [5]. Further, the Activity was 28 in [9], 4.9 in assay [11], 34 in [12] and “Dose-dependent effect” in the assay on HepG [7]. Further, the Ratio in assay [10] turned out to be 1.5. For the same compound, the 50% growth inhibitory concentration (GI50) with PANC-1 was 2.2 nM; in assay [3], 4.9 nM; with CCRF-CEM, 5.2 nM. In addition, in the assay on HepG [6], the outcome was inactive. In the assay with HepG [8], the result was Active.

For the compound `COc1cc2c3c(c4cc(OC)c(OC)cc4c2cc1OC)CN1CCC[C@@H]1C3` [TYLOPHORINE], the pIC50 in assay [1] was 5.65; in assay [2], 5.10; in [4], 6.50; in assay [5], 6.27. The GI50 with PANC-1 came out at 29 nM; in [3] it was 33 nM; with CCRF-CEM, 67 nM.

As to `COc1cc2c3c(c4cc(OC)c(OC)cc4c2cc1OC)CN1CCC[C@H]1C3` [(S)-TYLOPHORINE], the negative-log IC50 (pIC50) in [1] is less than 6.52; in [2], less than 6.52; in assay [4], 7.39; in assay [5], 6.64. The GI50 with PANC-1 turned out to be 12 nM; in assay [3] it was 11 nM; with CCRF-CEM, 15 nM.
